Reference: paper PMC3731522, “Arginase II inhibitory activity of flavonoid compounds from Scutellaria indica” (Archives of Pharmacal Research, 2013)

Biological target: T1, Arginase II (Mus musculus, UniProt O08691)
T1 construct: Tissue lysates of kidney were prepared using lysis buffer; from tissue; host or cells: kidney of C57BL/6 mice
T1 sequence (O08691 23-354): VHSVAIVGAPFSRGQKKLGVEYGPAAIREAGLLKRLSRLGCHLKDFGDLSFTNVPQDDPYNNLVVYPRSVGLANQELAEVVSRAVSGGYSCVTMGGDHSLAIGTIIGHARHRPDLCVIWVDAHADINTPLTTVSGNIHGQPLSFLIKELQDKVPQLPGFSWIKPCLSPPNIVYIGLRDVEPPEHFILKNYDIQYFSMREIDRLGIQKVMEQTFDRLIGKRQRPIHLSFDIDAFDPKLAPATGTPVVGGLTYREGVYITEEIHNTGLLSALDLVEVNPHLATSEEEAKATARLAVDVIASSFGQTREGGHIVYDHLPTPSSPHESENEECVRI
Assay: Arginase II inhibitory activity, enzyme solution from mouse kidney lysate, urea determined at 550 nm
Assay type: biochemical
Settings: kidney lysates of C57BL/6 mice; 50 % inhibition relative to vehicle control; average of three repeated experiments
Method: Arginase II solution was prepared from kidney lysates of anesthetized C57BL/6 mice (White et al. [2006]). Tissue lysates of kidney were prepared using lysis buffer (50 mM Tris–HCl, pH7.5, 0.1 mM EDTA and protease inhibitors) by homogenization at 4 °C followed by centrifugation for 20 min at 14,000×g at 4 °C. Briefly, […] lysates were added to Tris–HCl. The hydrolysis reaction of L-arginine by Arg was performed by incubating the mixture containing activated Arg and was stopped by adding acid solution. For calorimetric determination of urea, α-isonitrosopropiophenone was added, and the mixture was heated at 100 °C for 45 min. After placing the sample in the dark for 10 min at room temperature, the urea concentration was determined spectrophotometrically by the absorbance at 550 nm (White et al. [2006]).

| IC50 [µM] | SMILES |
| --- | --- |
| > 200 | COc1ccc([C@H]2C[C@H](OC)c3c(OC)c(OC)c(OC)c(OC)c3O2)cc1 [Compound 1, (2R,4S)-4,5,6,7,8,4′-hexamethoxylflavan] |
| 25.1 ± 2.6 | COc1ccccc1[C@@H]1CC(=O)c2c(O)cc(O)c(OC)c2O1 [Compound 3, (2S)-5,7-dihydroxy-8,2′-dimethoxyflavanone] |
| > 200 | COc1c(O)cc(O)c2c(=O)cc(-c3ccccc3)oc12 [Compound 2, wogonin] |
| 1 ± 0.1 | OC[C@H]1O[C@@H](Oc2cc(/C=C/c3cc(O)cc(O)c3)ccc2O)[C@H](O)[C@@H](O)[C@@H]1O [PG, piceatannol-3′-O-β-D-glucopyranoside, reference compound] |
| > 200 | O=C1C[C@@H](c2ccc(O)cc2)Oc2cc(O)cc(O[C@@H]3O[C@H](CO)[C@@H](O)[C@H](O)[C@H]3O)c21 [Compound 7, naringenin-5-O-β-D-glucopyranoside] |
| > 200 | COc1cc(O)c2c(c1OC)OC(c1cc(O)ccc1OC1OC(CO)C(O)C(O)C1O)CC2=O [Compound 8, (2S)-5,5′-dihydroxy-7,8-dimethoxyflavanone-2′-O-β-D-glucopyranoside] |
| > 200 | O=c1cc(-c2ccc(O)cc2)oc2cc(O)cc(O)c12 [Compound 4, apigenin] |
| > 200 | O=C1C[C@@H](c2ccc(O)cc2)Oc2cc(O)cc(O)c21 [Compound 6, naringenin] |
| 11.6 ± 1.2 | COc1cc(O)c2c(c1OC)O[C@H](c1cc(O)ccc1O)CC2=O [Compound 5, (2S)-5,2′,5′-trihydroxy-7,8-dimethoxyflavanone] |

Tested on: not given
Assay: not given
Settings: not given

| melting point [°C] | SMILES |
| --- | --- |
| 218 to 220 | COc1ccc([C@H]2C[C@H](OC)c3c(OC)c(OC)c(OC)c(OC)c3O2)cc1 [Compound 1, (2R,4S)-4,5,6,7,8,4′-hexamethoxylflavan] |
